# Measurements as given in patent US20260083126A1, “ANTIMICROBIAL COMPOSITIONS” (AHV International B.V., priority 2022, published 2026).
# Assays:
# [1] = tested on: Pseudomonas aeruginosa ATCC 27853 biofilm; test: MBIC assay (crystal violet); format: cell-based; details: 48 h at 37° C., absorbance 540 nm
# Description: The exact weighed amount was noted and the volume of solvent to reach a 80 mM dilution calculated. Half of the volume was added first, by adding Tween 80 and let stand for 5 minutes. In a second step, the other half of the volume DMSO was added and resuspended to help the dilution process. The closed tube was inverted 5-10 times and then vortexed very thoroughly for at least 30 seconds. If after this procedure crystals were still visible, the tube was placed in a shaker at 37° C. at 150 rpm for at least 30 minutes (it is indicated if the dissolution period was longer than 2 h). […] In case of Bis(4-Chlorophenyl) thiosulfonate, a lower concentrated stock solution of 2 mM needed to be prepared. For that, the required amount of compound was weighed in and 2% v/v Tween80 and 2% v/v DMSO of the end volume of the stock solution was added to the substance. This mix was heated in a water bath set to 40° C. and occasionally shaken. When the whole amount of the substance reached dissolution, the volume was filled up with growth medium until the end volume. This 2 mM stock solution of Bis(4-Chlorophenyl) thiosulfonate was used in the MIC plate and diluted two-fold, resulting in a testing range of Bis(4-Chlorophenyl) thiosulfonate from 1 mM to 0.002 mM.
# Frozen aliquots of Staphylococcus epidermis ATCC 35984 and Pseudomonas aeruginosa ATCC 27853 were used to inoculate a tryptic soy agar (TSA) plate and were incubated overnight at 37° C. After incubation 3-5 well-isolated colonies with the same morphology were selected from the TSA plate and resuspended in 2 ml 0.9% saline solution with 3-6 glass beads and vortexed. The optical density of the bacterial suspension was measured at 600 nm (OD600) with a spectrophotometer (Evolution™ 201/220 UV-Visible Spectrophotometer, Thermo Fisher Scientific) and diluted to an OD600 of 0.2. The MBIC assay was performed in a 96-microtiter plate. […] The solution was resuspended and transferred to a flat-bottom 96-well plate and the absorbance measured at 540 nm with the spectrophotometer. […]
# plant pathogens = test: Colony diameter on agar plates, all tested fungi (conclusion); format: cell-based; details: conclusion of Example 7b
# Description: In particular, the antimicrobial activity of bis(p-chlorophenyl) disulfide (AM2), bis(p-fluorophenyl) disulfide (AM3), bis(p-chlorophenyl) thiosulfonate (AM6) and diisopropyl thiosulfonate (AM8) of the invention is tested against pathogenic fungi selected from Pythium aphanidermatum, Phytophthora cinnamiomi, Fusarium oxysporum, Sclerotinia sclerotiorum, Rhizoctonia solani and Botrytis cinerea.
# Experimental design. The effects of mentioned compounds on growth of the fungi were tested on agar plates with various dilutions of the compounds. The fungus was inoculated in the middle of the agar plate. At various time intervals the diameter of the colony was measured.
# The fungi were pregrown on appropriate agar media, for example potato dextrose agar or malt extract agar at 24 C. After 3, 7, 10 and 14 days of incubation at 24 C, the diameter of the fungal colonies were measured on the agar plates. Since the agar plates have a diameter of 8 cm, this was the maximum colony size.
# Agar media were prepared with various dilutions of bis(p-chlorophenyl) disulfide (AM2), bis(p-fluorophenyl) disulfide (AM3), bis(p-chlorophenyl) thiosulfonate (AM6) and diisopropyl thiosulfonate (AM8).
# The test compounds were added to the agar media when the liquid agar medium was still hand-warm to prevent heat-dependent decomposition of the compounds. 50-fold concentrated stock solutions of the antimicrobial compounds of each dilution were prepared in 50% tween-80 and 50% DMSO (in this way the concentrations DMSO and tween 80 were the same in all agar plates). The following concentrations of the antimicrobial compounds were used for each strain in agar plates: 1.0 mM, 0.50 mM, 0.25 mM, 0.125 mM and 0.063 mM in the corresponding medium as indicated in table 12. Each concentration was tested in 4-fold in 8 cm diameter petridishes and each dish contained 11 ml agar medium.
# Hereafter, the plates were inoculated in the middle of the dish. Incubation took place at 24 C. Colony diameters were measured at t=3, 7, 10 and 14 days after inoculation. Since the diameter of the petri dishes are 8 cm this diameter was the maximal diameter that was measured.
Compound,P. aeruginosa MBIC90 [1],growth of plant pathogens (plant pathogens)
"Clc1ccc(SSc2ccc(Cl)cc2)cc1 [Bis (4-chlorophenyl) disulfide, Bis(4-chlorophenyl) disulfide]",>4 mM,clearly inhibited
"O=S(=O)(Sc1ccc(Cl)cc1)c1ccc(Cl)cc1 [Bis (4-chlorophenyl) thiosulfonate, Bis(4-chlorophenyl) thiosulfonate]",–,clearly inhibited
"Fc1ccc(SSc2ccc(F)cc2)cc1 [Bis (4-fluorophenyl) disulfide, Bis(4-fluorophenyl) disulfide]",–,clearly inhibited
CC(C)SS(=O)(=O)C(C)C [Di-isopropyl thiosulfonate],–,clearly inhibited
"CCCSSCCC [Di-n-propyl disulfide, reference compound]",>4 mM,–
"CCCSS(=O)(=O)CCC [Di-n-propyl thiosulfonate, reference compound]",0.5 mM,–
